Results from ChEMBL document CHEMBL1141602, “Chemical library and structure-activity relationships of 11-demethyl-12-oxo calanolide A analogues as anti-HIV-1 agents” (J Med Chem, 2008).
≈ marks a conversion by molar mass, not a printed value.

How the values were obtained:
[1] = tested on: Human immunodeficiency virus 1; assay: Antiviral activity against HIV1 at 1.0 uM; type: functional
HOS = assay: Toxicity in CD4 expressing HOS cells at 10 uM; type: cell-based; conditions: human
[2] = Therapeutic index, ratio of IC50 for HOS cells to EC50 for human HIV1; type: cell-based; conditions: read-out: Ratio IC50/EC50
[3] = tested on: Human immunodeficiency virus 1; assay: Antiviral activity against HIV1; type: functional, organism-based
[4] = tested on: Mycobacterium tuberculosis; assay: Antimicrobial activity against Mycobacterium tuberculosis; type: functional

| SMILES | inhibition at 1 µM [1] [%] | Activity (HOS) [%] | other results |
| --- | --- | --- | --- |
| CC1CC(=O)c2c(c3c(c4c(-c5ccc([N+](=O)[O-])cc5)cc(=O)oc24)OC(C)(C)C=C3)O1 (stereo unspecified) | 51.9 |  |  |
| CCCCc1cc(=O)oc2c3c(c4c(c12)OC(c1ccccc1)C=C4)OC(C)CC3=O (stereo unspecified) | 96.4 | 10 |  |
| CCCCC1C=Cc2c3c(c4oc(=O)cc(CCC(F)(F)F)c4c2O1)C(=O)CC(C)O3 (stereo unspecified) | 53.6 |  |  |
| CCCc1cc(=O)oc2c1c1c(c3occc(=O)c32)C=CC(C)(C)O1 | 64.9 |  |  |
| CCc1cc(=O)oc2c3c(c4c(c12)OC(c1ccccc1)C=C4)OC(C)CC3=O (stereo unspecified) | 96.4 | 10 |  |
| CCCc1cc(=O)oc2c3c(c4c(c12)OC(CCC)C=C4)OC(C)CC3=O (stereo unspecified) | 54.1 |  |  |
| CCCCCC1CC(=O)c2c(c3c(c4c(CCC)cc(=O)oc24)OC(C)(C)C=C3)O1 (stereo unspecified) | 46.4 | < 10 |  |
| C/C=C/C1C=Cc2c3c(c4oc(=O)cc(CC)c4c2O1)C(=O)CC(C)O3 (stereo unspecified) | 56.4 |  |  |
| CCCC1C=Cc2c3c(c4oc(=O)cc(CC)c4c2O1)C(=O)CC(C)O3 (stereo unspecified) | 97 | 10 |  |
| CCCc1c(F)c(=O)oc2c3c(c4c(c12)OC(C)(C)C=C4)OC(C)CC3=O (stereo unspecified) | 45.3 | 10 |  |
| CCc1c(F)c(=O)oc2c3c(c4c(c12)OC(C)(C)C=C4)OC(C)CC3=O (stereo unspecified) |  | 10 |  |
| CCCc1cc(=O)oc2c3c(c4c(c12)OC(C)(C)C=C4)OC(CCC)CC3=O (stereo unspecified) | 61.9 | < 10 | selectivity ratio [2]: 102; EC50 [3]: 32.5 nM |
| C/C=C/C1C=Cc2c3c(c4oc(=O)c(F)c(CC)c4c2O1)C(=O)CC(C)O3 (stereo unspecified) | 46.2 |  |  |
| CCCc1cc(=O)oc2c3c(c4c(c12)OC(C)C=C4)OCC(C)C3=O (stereo unspecified) | 62.4 | 10 |  |
| C/C=C/C1C=Cc2c3c(c4oc(=O)c(Cl)c(CCC)c4c2O1)C(=O)CC(C)O3 (stereo unspecified) | 57.3 |  |  |
| CCCc1c(Cl)c(=O)oc2c3c(c4c(c12)OCC(C)C4OCC)OC(C)CC3=O (stereo unspecified) | 51.7 |  |  |
| CCCCC1C=Cc2c3c(c4oc(=O)cc(CCC)c4c2O1)C(=O)C(C)CO3 (stereo unspecified) | 35.2 | < 10 |  |
| CCCc1cc(=O)oc2c3c(c4c(c12)OC(C)(C)C=C4)OC(c1ccc(C)cc1)CC3=O (stereo unspecified) | 57 |  |  |
| CCCc1cc(=O)oc2c3c(c4c(c12)OC(c1ccccc1[N+](=O)[O-])C=C4)OC(C)CC3=O (stereo unspecified) | 52.6 |  |  |
| CCc1c(F)c(=O)oc2c3c(c4c(c12)OC(C)C=C4)OC(C)CC3=O (stereo unspecified) | 39.5 |  |  |
| CCCc1c(Cl)c(=O)oc2c3c(c4c(c12)OC(c1ccccc1)C=C4)OC(C)CC3=O (stereo unspecified) | 96.3 | > 80 |  |
| CCCc1cc(=O)oc2c3c(c4c(c12)OC(C)(C)C=C4)OCC(C)C3=O (stereo unspecified) | 38.9 | 10 |  |
| CCc1cc(=O)oc2c3c(c4c(c12)OC(C)(C)C=C4)OC(C)CC3=O (stereo unspecified) | 73.2 |  | selectivity ratio [2]: > 1000; EC50 [3]: 270 nM |

| SMILES | inhibition at 1 µM [1] [%] | Activity (HOS) [%] | other results |
| --- | --- | --- | --- |
| CCCc1cc(=O)oc2c3c(c4c(c12)OC(c1ccccc1)C=C4)OCC(C)C3=O (stereo unspecified) |  | < 10 |  |
| CCCc1c(Cl)c(=O)oc2c3c(c4c(c12)OCC(C)=C4)OC(C)CC3=O (stereo unspecified) | 49.1 |  |  |
| C/C=C/C1C=Cc2c3c(c4oc(=O)cc(CCC)c4c2O1)C(=O)C(C)CO3 (stereo unspecified) | 37.8 |  |  |
| CCCCc1cc(=O)oc2c3c(c4c(c12)OC(C)C=C4)OC(C)CC3=O (stereo unspecified) | 75.4 |  |  |
| CC1CC(=O)c2c(c3c(c4c5c(c(=O)oc24)CCCC5)OC(C)(C)C=C3)O1 (stereo unspecified) | 67 |  |  |
| CCCCC1C=Cc2c3c(c4oc(=O)cc(CC)c4c2O1)C(=O)CC(C)O3 (stereo unspecified) | 96.7 | 10 |  |
| CCCc1c(F)c(=O)oc2c3c(c4c(c12)OCC(C)=C4)OC(C)CC3=O (stereo unspecified) | 47.1 |  |  |
| CCc1cc(=O)oc2c3c(c4c(c12)OC(C)C=C4)OC(C)CC3=O (stereo unspecified) | 57.4 |  |  |
| CCCc1cc(=O)oc2c3c(c4c(c12)OC(c1ccccc1[N+](=O)[O-])CC4OCC)OC(C)CC3=O (stereo unspecified) | 61 | < 10 |  |
| CC1CC(=O)c2c(c3c(c4c(CN5CCN(C)CC5)cc(=O)oc24)OC(C)(C)C=C3)O1 (stereo unspecified) | 48.3 |  |  |
| CC1CC(=O)c2c(c3c(c4c(CCC(F)(F)F)cc(=O)oc24)OC(c2ccccc2)C=C3)O1 (stereo unspecified) | 47.6 |  |  |
| COc1cc(-c2cc(=O)oc3c4c(c5c(c23)OC(C)(C)C=C5)OC(C)CC4=O)cc(OC)c1OC (stereo unspecified) | 58 |  |  |
| CCCc1cc(=O)oc2c3c(c4c(c12)OC(C)(C)C=C4)OC(c1ccccc1)CC3=O (stereo unspecified) | 62.7 | < 10 |  |
| CCCc1c(Cl)c(=O)oc2c3c(c4c(c12)OC(C)C=C4)OC(C)CC3=O (stereo unspecified) | 55.7 |  |  |
| CCCc1c(Cl)c(=O)oc2c3c(c4c(c12)OC(C)(C)C=C4)OC(C)CC3=O (stereo unspecified) | 68.1 |  | selectivity ratio [2]: 243; EC50 [3]: 370 nM |
| CCCc1cc(=O)oc2c3c(c4c(c12)OC(C)(C)C=C4)OC(CBr)CC3=O (stereo unspecified) | 93.5 |  | selectivity ratio [2]: > 10500; EC50 [3]: 2.85 nM |
| CCCc1cc(=O)oc2c3c(c4c(c12)OC(C)(C)C=C4)OC(C)CC3=O (racemic) | 73.1 |  |  |
| CCCc1cc(=O)oc2c3c(c4c(c12)OC(C)(C)C=C4)OC(C)CC3O (racemic) |  |  | EC50 [3]: 310 nM |
| CCCc1cc(=O)oc2c3c(c4c(c12)OC(C)(C)C=C4)O[C@@H]1CCCC[C@@H]1C3=O (relative stereo) | 59.3 | < 10 |  |
| CCCc1cc(=O)oc2c3c(c4c(c12)OC(C)(C)C=C4)O[C@H]1CCCC[C@@H]1C3=O (relative stereo) | 40 | < 10 |  |
| CCCc1cc(=O)oc2c3c(c4c(c12)OC(C)(C)C=C4)OC(C)(C)CC3=O [114, 10,10-DIMETHYL-11-DEMETHYL-12-OXO CALANOLIDE A] | 68.3 |  | selectivity ratio [2]: 47; EC50 [3]: 640 nM |
| CCCc1cc(=O)oc2c3c(c4c(c12)OC(C)(C)C=C4)O[C@H](C)[C@@H](C)[C@@H]3O [CALANOLIDE A] |  |  | MIC [4]: 3.13 µg/mL (≈ 8.45 µM); EC50 [3]: 100 nM |
